These results are taken from ChEMBL document CHEMBL1795291, “Computer- and structure-based lead design for epigenetic targets” (Bioorg Med Chem, 2011).

Experiment [1] can be described thus: Inhibition of HDAC by fluorescence assay.
Experiment [2] deals with T1, Histone-lysine N-methyltransferase EHMT2 (Homo sapiens, UniProt Q96KQ7).
T1 sequence (Q96KQ7 whole entry): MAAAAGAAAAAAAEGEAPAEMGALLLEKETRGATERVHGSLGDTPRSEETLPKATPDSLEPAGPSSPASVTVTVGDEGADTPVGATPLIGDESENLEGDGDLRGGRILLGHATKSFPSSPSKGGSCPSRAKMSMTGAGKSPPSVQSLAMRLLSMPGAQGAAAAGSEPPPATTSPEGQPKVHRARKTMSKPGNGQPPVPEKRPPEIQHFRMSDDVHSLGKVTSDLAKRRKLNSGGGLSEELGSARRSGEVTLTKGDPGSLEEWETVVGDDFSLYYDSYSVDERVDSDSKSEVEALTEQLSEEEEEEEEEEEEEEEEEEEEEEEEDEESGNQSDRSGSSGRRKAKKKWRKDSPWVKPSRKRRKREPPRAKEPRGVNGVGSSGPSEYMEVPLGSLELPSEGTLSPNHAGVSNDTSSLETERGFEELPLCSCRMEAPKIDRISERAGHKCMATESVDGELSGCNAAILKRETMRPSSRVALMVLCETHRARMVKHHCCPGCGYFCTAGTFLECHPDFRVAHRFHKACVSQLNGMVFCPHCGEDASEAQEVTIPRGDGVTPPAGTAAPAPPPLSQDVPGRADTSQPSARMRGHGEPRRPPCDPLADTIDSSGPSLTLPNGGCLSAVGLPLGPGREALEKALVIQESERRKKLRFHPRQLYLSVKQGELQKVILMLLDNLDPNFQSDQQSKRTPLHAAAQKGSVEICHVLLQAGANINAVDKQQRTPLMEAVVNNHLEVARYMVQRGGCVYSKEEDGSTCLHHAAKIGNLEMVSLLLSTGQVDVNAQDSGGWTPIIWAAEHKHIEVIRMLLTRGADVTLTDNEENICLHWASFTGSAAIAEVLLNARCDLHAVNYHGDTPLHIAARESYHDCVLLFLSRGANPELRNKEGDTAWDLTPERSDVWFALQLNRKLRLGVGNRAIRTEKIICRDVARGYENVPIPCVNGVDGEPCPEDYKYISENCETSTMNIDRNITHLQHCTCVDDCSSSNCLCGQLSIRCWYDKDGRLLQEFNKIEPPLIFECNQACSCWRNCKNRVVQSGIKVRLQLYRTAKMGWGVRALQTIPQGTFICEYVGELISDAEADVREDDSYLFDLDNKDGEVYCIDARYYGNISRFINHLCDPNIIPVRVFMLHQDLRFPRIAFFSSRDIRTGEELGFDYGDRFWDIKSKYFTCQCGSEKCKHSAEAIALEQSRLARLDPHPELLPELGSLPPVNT
Nature of the experiment: Inhibition of lysine methyltransferase G9a.

Experiment [3] deals with T2, NAD-dependent protein deacetylase sirtuin-2 (Homo sapiens, UniProt Q8IXJ6).
T2 sequence (Q8IXJ6 whole entry): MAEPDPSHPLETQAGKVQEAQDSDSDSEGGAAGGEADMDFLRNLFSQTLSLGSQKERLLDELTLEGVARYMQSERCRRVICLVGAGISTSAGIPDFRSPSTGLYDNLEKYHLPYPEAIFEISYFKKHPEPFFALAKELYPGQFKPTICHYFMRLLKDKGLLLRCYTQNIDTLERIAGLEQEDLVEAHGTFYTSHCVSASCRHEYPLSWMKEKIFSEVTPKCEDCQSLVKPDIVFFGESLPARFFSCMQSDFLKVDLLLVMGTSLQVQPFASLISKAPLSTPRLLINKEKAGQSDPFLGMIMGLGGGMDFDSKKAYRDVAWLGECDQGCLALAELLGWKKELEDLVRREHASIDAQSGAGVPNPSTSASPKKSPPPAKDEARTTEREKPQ
As to the kind of experiment: Inhibition of human Sirt2.

By IC50 is commonly meant the concentration at which inhibition is half-maximal. Lower therefore signals higher potency. Molecule `CCc1nnc(NS(=O)(=O)c2ccc(N/C=C3\Sc4ccccc4C3=O)cc2)s1` returned an IC50 in experiment [1] of 4.3 µM.
In experiment [2], `COc1ccc(C(=O)Oc2ccc(CCn3c(NC(=O)c4ccc(C(F)(F)F)cc4)nc4cc(C(=O)O)ccc43)cc2)cc1` yielded an IC50 of 0.106 µM.
Consider `O=C1NC(=S)NC(=O)C1=Cc1ccc(-c2ccccc2)cc1`, for which 8.7 µM corresponded to half-maximal inhibition in experiment [3] (IC50).
